Results on 19 molecules are retold here after BindingDB's records for patent US20240034729 (Wuhan Ll Science and Technology Development, 2024).

Structures are written as SMILES.

This test has as its target T1, P2X purinoceptor 3 (Homo sapiens, UniProt P56373).
T1 sequence (P56373 whole entry): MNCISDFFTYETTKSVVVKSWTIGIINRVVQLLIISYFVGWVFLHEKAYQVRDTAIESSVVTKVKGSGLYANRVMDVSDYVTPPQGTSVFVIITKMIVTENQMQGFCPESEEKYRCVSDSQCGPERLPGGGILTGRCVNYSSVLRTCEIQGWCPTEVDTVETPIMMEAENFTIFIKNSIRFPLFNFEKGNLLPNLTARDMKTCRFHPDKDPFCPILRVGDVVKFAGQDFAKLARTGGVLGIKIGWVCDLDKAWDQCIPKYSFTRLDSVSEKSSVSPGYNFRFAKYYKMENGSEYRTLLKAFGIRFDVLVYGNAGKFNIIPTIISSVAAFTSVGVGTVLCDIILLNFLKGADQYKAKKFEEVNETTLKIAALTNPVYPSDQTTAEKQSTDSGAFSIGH
In words: Evaluation of In Vitro Biological Activity. Here is the method:
Each well was added with 10 μL of test compound (which was dissolved in DMSO at a concentration of 10 mM and serially diluted with buffer) or vehicle, and then was left to equilibrate for 30 min at room temperature.
Usually IC50 stands for the concentration at which inhibition is half-maximal. Molecule `COC(=O)N1CCO[C@@H](Cc2c(-c3c(F)cc(-c4ccc(O)cn4)cc3F)nc3cc(C)ccn23)C1` [US20240034729, Compound 147] returned an IC50 of less than 100 nM.
The same measure for `COC(=O)N1CCO[C@@H](Cc2c(-c3c(F)cc(-n4cnc(C(N)=O)c4)cc3F)nc3cc(C)ccn23)C1` [US20240034729, Compound 110]: less than 100 nM; for `COC(=O)N1CCO[C@@H](Cc2c(-c3c(F)cc(NC(=O)/C=C/C(N)=O)cc3F)nc3cc(C)ccn23)C1` [US20240034729, Compound 29]: less than 10 nM.
The same measure for `COC(=O)N1CCO[C@@H](Cc2c(-c3c(F)cc(C#N)cc3F)nc3cc(C)ccn23)C1` [US20240034729, Compound 6]: less than 1000 nM; for `COC(=O)N1CCO[C@@H](Cc2c(-c3c(F)cc(NC(=O)C4(C#N)CC4)cc3F)nc3cc(C)ccn23)C1` [US20240034729, Compound 89]: less than 100 nM.
For `COC(=O)N1CCO[C@@H](Cc2c(-c3c(F)cc(CC(N)=O)cc3F)nc3cc(C)ccn23)C1` [US20240034729, Compound 63] the value was less than 1000 nM; for `CCC(=O)N1CCO[C@@H](Cc2c(-c3c(F)cc(-c4ncc[nH]4)cc3F)nc3cc(C)ccn23)C1` [US20240034729, Compound 52], less than 10 nM.
Molecule `COC(=O)N1CCO[C@@H](Cc2c(-c3c(F)cc(N4CC=CC4=O)cc3F)nc3cc(C)ccn23)C1` [US20240034729, Compound 169] had a half-inhibitory concentration (IC50) of less than 10 nM.
Molecule `COC(=O)N1CCO[C@@H](Cc2c(-c3c(F)cc(-c4nc(C(C)(C)O)co4)cc3F)nc3cc(C)ccn23)C1` [US20240034729, Compound 119] had a half-inhibitory concentration (IC50) of less than 100 nM.
For `COC(=O)N1CCO[C@@H](Cc2c(-c3c(F)cc(NC4CCC(=O)C4)cc3F)nc3cc(C)ccn23)C1` (some centres undefined) [US20240034729, Compound 79] the value was less than 100 nM; for `COC(=O)N1CCO[C@@H](Cc2c(-c3c(F)cc(-c4nc(C5(C#N)CC5)c[nH]4)cc3F)nc3cc(C)ccn23)C1` [US20240034729, Compound 144], less than 100 nM.
The same measure for `COC(=O)N1CCO[C@@H](Cc2c(-c3c(F)cc(-c4nc(C5(C(=O)O)CC5)c[nH]4)cc3F)nc3cc(C)ccn23)C1` [US20240034729, Compound 59]: less than 10 nM.
For the molecule `COC(=O)N1CCO[C@@H](Cc2c(-c3c(F)cc(NC(=O)C4(C(=O)OC)CC4)cc3F)nc3cc(C)ccn23)C1` [US20240034729, Compound 97], the IC50 was less than 1000 nM.
The same measure for `COC(=O)N1CCO[C@@H](Cc2c(-c3c(F)cc(-c4ncccn4)cc3F)nc3cc(C)ccn23)C1` [US20240034729, Compound 18]: less than 1000 nM; for `COC(=O)N1CCO[C@@H](Cc2c(-c3c(F)cc(-n4cnnn4)cc3F)nc3cc(C)ccn23)C1` [US20240034729, Compound 58]: less than 10 nM; for `CCC(=O)c1ccn(-c2cc(F)c(-c3nc4cc(C)ccn4c3C[C@H]3CN(C(=O)OC)CCO3)c(F)c2)n1` [US20240034729, Compound 164]: less than 100 nM.
Take `COC(=O)N1CCO[C@@H](Cc2c(-c3c(F)cc(-c4ccc(C(N)=O)cn4)cc3F)nc3cc(C)ccn23)C1` [US20240034729, Compound 146]: the IC50 is less than 1000 nM.
For `COC(=O)N1CCO[C@@H](Cc2c(-c3c(F)cc(-c4nc(C5(C(N)=O)CC5)c[nH]4)cc3F)nc3cc(C)ccn23)C1` [US20240034729, Compound 133], the IC50 is less than 100 nM.
As to `COC(=O)N1CCO[C@@H](Cc2c(-c3c(F)cc(-c4nn[nH]n4)cc3F)nc3cc(C)ccn23)C1` [US20240034729, Compound 104], the 50% inhibitory concentration (IC50) is less than 1000 nM.
